Source: the NIST ThermoML archive (doi:10.1016/j.jct.2009.06.011)
Numbers after ± are expanded uncertainties.

Assay: activity coefficient (dimensionless); of the first substance listed, at infinite dilution; xn = mol fraction of the nth substance listed
Conditions: 101 kPa, Liquid, Chromatography, x1 = 0

Question: Which results are given for `C#CCCCCCC` [1-octyne] + CCCC[n+]1ccc(C)cc1.O=S(=O)([N-]S(=O)(=O)C(F)(F)F)C(F)(F)F?
Answer: activity coefficient (298.15 K): 4.43 ± 0.3; activity coefficient (308.15 K): 4.42 ± 0.3; activity coefficient (318.15 K): 4.4 ± 0.3; activity coefficient (328.15 K): 4.38 ± 0.3; activity coefficient (338.15 K): 4.37 ± 0.3; activity coefficient (348.15 K): 4.36 ± 0.3; activity coefficient (358.15 K): 4.34 ± 0.3; activity coefficient (368.15 K): 4.33 ± 0.29

Question: With `CCCCO` [butan-1-ol] + CCCC[n+]1ccc(C)cc1.O=S(=O)([N-]S(=O)(=O)C(F)(F)F)C(F)(F)F as the compound, how does the activity coefficient (318.15 K) read?
Answer: The activity coefficient was 2.26 ± 0.15.

Question: What about the activity coefficient (328.15 K) of the same compound?
Answer: The activity coefficient was 2.05 ± 0.14.

Question: What about the activity coefficient (338.15 K) of the same compound?
Answer: The activity coefficient was 1.87 ± 0.13.

Question: And the activity coefficient (348.15 K)?
Answer: The activity coefficient was 1.71 ± 0.11.

Question: What about the activity coefficient (358.15 K) of the same compound?
Answer: The activity coefficient was 1.57 ± 0.1.

Question: And the activity coefficient (368.15 K)?
Answer: The activity coefficient was 1.46 ± 0.1.

Question: Which activity coefficient (298.15 K) does the source give for `CCCCCC` [hexane] + CCCC[n+]1ccc(C)cc1.O=S(=O)([N-]S(=O)(=O)C(F)(F)F)C(F)(F)F here?
Answer: Its activity coefficient is 15.4 ± 1.1.

Question: And the activity coefficient (308.15 K)?
Answer: Its activity coefficient is 14.5 ± 1.

Question: And the activity coefficient (318.15 K)?
Answer: Its activity coefficient is 13.5 ± 0.9.

Question: And the activity coefficient (328.15 K)?
Answer: Its activity coefficient is 12.7 ± 0.9.

Question: And the activity coefficient (338.15 K)?
Answer: Its activity coefficient is 12 ± 0.8.

Question: What about the activity coefficient (348.15 K) of the same compound?
Answer: The activity coefficient was 11.4 ± 0.8.

Question: And the activity coefficient (358.15 K)?
Answer: Its activity coefficient is 10.8 ± 0.7.

Question: And the activity coefficient (368.15 K)?
Answer: The activity coefficient was 10.3 ± 0.7.

Question: Which activity coefficient (298.15 K) does the source give for `C#CCCC` [1-pentyne] + CCCC[n+]1ccc(C)cc1.O=S(=O)([N-]S(=O)(=O)C(F)(F)F)C(F)(F)F here?
Answer: Its activity coefficient is 1.79 ± 0.12.

Question: And the activity coefficient (308.15 K)?
Answer: Its activity coefficient is 1.82 ± 0.12.

Question: And the activity coefficient (318.15 K)?
Answer: The activity coefficient was 1.84 ± 0.12.

Question: What about the activity coefficient (328.15 K) of the same compound?
Answer: Its activity coefficient is 1.87 ± 0.13.

Question: What about the activity coefficient (338.15 K) of the same compound?
Answer: Its activity coefficient is 1.89 ± 0.13.

Question: What about the activity coefficient (348.15 K) of the same compound?
Answer: The activity coefficient was 1.91 ± 0.13.

Question: And the activity coefficient (358.15 K)?
Answer: Its activity coefficient is 1.93 ± 0.13.

Question: And the activity coefficient (368.15 K)?
Answer: The activity coefficient was 1.95 ± 0.13.

Question: Which results are given for `CO` [methanol] + CCCC[n+]1ccc(C)cc1.O=S(=O)([N-]S(=O)(=O)C(F)(F)F)C(F)(F)F?
Answer: activity coefficient (298.15 K): 1.53 ± 0.1; activity coefficient (308.15 K): 1.39 ± 0.09; activity coefficient (318.15 K): 1.27 ± 0.08; activity coefficient (328.15 K): 1.17 ± 0.07; activity coefficient (338.15 K): 1.08 ± 0.07; activity coefficient (348.15 K): 1 ± 0.06; activity coefficient (358.15 K): 0.935 ± 0.059; activity coefficient (368.15 K): 0.876 ± 0.056

Question: With `Cc1ccccc1C` [1,2-dimethylbenzene] + CCCC[n+]1ccc(C)cc1.O=S(=O)([N-]S(=O)(=O)C(F)(F)F)C(F)(F)F as the compound, how does the activity coefficient (318.15 K) read?
Answer: The activity coefficient was 1.21 ± 0.08.

Question: What about the activity coefficient (328.15 K) of the same compound?
Answer: The activity coefficient was 1.24 ± 0.08.

Question: And the activity coefficient (338.15 K)?
Answer: Its activity coefficient is 1.27 ± 0.08.

Question: And the activity coefficient (348.15 K)?
Answer: The activity coefficient was 1.3 ± 0.08.

Question: What about the activity coefficient (358.15 K) of the same compound?
Answer: The activity coefficient was 1.32 ± 0.09.

Question: And the activity coefficient (368.15 K)?
Answer: Its activity coefficient is 1.35 ± 0.09.

Question: For `Cc1ccc(C)cc1` [1,4-dimethylbenzene] + CCCC[n+]1ccc(C)cc1.O=S(=O)([N-]S(=O)(=O)C(F)(F)F)C(F)(F)F, which activity coefficient (318.15 K) is on record?
Answer: Its activity coefficient is 1.35 ± 0.09.

Question: And the activity coefficient (328.15 K)?
Answer: Its activity coefficient is 1.38 ± 0.09.

Question: What about the activity coefficient (338.15 K) of the same compound?
Answer: The activity coefficient was 1.42 ± 0.09.

Question: And the activity coefficient (348.15 K)?
Answer: The activity coefficient was 1.45 ± 0.1.

Question: And the activity coefficient (358.15 K)?
Answer: The activity coefficient was 1.48 ± 0.1.

Question: What about the activity coefficient (368.15 K) of the same compound?
Answer: Its activity coefficient is 1.51 ± 0.1.

Question: With `COC(C)(C)C` [2-methoxy-2-methylpropane] + CCCC[n+]1ccc(C)cc1.O=S(=O)([N-]S(=O)(=O)C(F)(F)F)C(F)(F)F as the compound, how does the activity coefficient (298.15 K) read?
Answer: The activity coefficient was 1.97 ± 0.13.

Question: What about the activity coefficient (308.15 K) of the same compound?
Answer: Its activity coefficient is 2 ± 0.14.

Question: What about the activity coefficient (318.15 K) of the same compound?
Answer: The activity coefficient was 2.03 ± 0.14.

Question: And the activity coefficient (328.15 K)?
Answer: Its activity coefficient is 2.06 ± 0.14.

Question: And the activity coefficient (338.15 K)?
Answer: Its activity coefficient is 2.08 ± 0.14.

Question: What about the activity coefficient (348.15 K) of the same compound?
Answer: Its activity coefficient is 2.1 ± 0.14.

Question: What about the activity coefficient (358.15 K) of the same compound?
Answer: Its activity coefficient is 2.12 ± 0.14.

Question: And the activity coefficient (368.15 K)?
Answer: Its activity coefficient is 2.15 ± 0.15.

Question: What does the source list for `CC(C)=O` [acetone] + CCCC[n+]1ccc(C)cc1.O=S(=O)([N-]S(=O)(=O)C(F)(F)F)C(F)(F)F?
Answer: activity coefficient (298.15 K): 0.398 ± 0.034; activity coefficient (308.15 K): 0.406 ± 0.034; activity coefficient (318.15 K): 0.415 ± 0.035; activity coefficient (328.15 K): 0.423 ± 0.035; activity coefficient (338.15 K): 0.43 ± 0.035; activity coefficient (348.15 K): 0.438 ± 0.035; activity coefficient (358.15 K): 0.445 ± 0.036; activity coefficient (368.15 K): 0.451 ± 0.036

Question: Which results are given for `CCO` [ethanol] + CCCC[n+]1ccc(C)cc1.O=S(=O)([N-]S(=O)(=O)C(F)(F)F)C(F)(F)F?
Answer: activity coefficient (298.15 K): 1.91 ± 0.13; activity coefficient (308.15 K): 1.72 ± 0.12; activity coefficient (318.15 K): 1.56 ± 0.1; activity coefficient (328.15 K): 1.43 ± 0.09; activity coefficient (338.15 K): 1.31 ± 0.09; activity coefficient (348.15 K): 1.21 ± 0.08; activity coefficient (358.15 K): 1.12 ± 0.07; activity coefficient (368.15 K): 1.04 ± 0.07

Question: With `C1CCCC1` [cyclopentane] + CCCC[n+]1ccc(C)cc1.O=S(=O)([N-]S(=O)(=O)C(F)(F)F)C(F)(F)F as the compound, how does the activity coefficient (298.15 K) read?
Answer: The activity coefficient was 6.65 ± 0.45.

Question: And the activity coefficient (308.15 K)?
Answer: Its activity coefficient is 6.25 ± 0.43.

Question: And the activity coefficient (318.15 K)?
Answer: The activity coefficient was 5.89 ± 0.4.

Question: And the activity coefficient (328.15 K)?
Answer: The activity coefficient was 5.59 ± 0.38.

Question: What about the activity coefficient (338.15 K) of the same compound?
Answer: Its activity coefficient is 5.28 ± 0.36.

Question: And the activity coefficient (348.15 K)?
Answer: Its activity coefficient is 5.03 ± 0.34.

Question: And the activity coefficient (358.15 K)?
Answer: Its activity coefficient is 4.81 ± 0.33.

Question: What about the activity coefficient (368.15 K) of the same compound?
Answer: The activity coefficient was 4.6 ± 0.31.

Question: For `O` [water] + CCCC[n+]1ccc(C)cc1.O=S(=O)([N-]S(=O)(=O)C(F)(F)F)C(F)(F)F, which activity coefficient (298.15 K) is on record?
Answer: Its activity coefficient is 4.86 ± 0.33.

Question: What about the activity coefficient (308.15 K) of the same compound?
Answer: Its activity coefficient is 4.2 ± 0.29.

Question: And the activity coefficient (318.15 K)?
Answer: The activity coefficient was 3.65 ± 0.25.

Question: And the activity coefficient (328.15 K)?
Answer: The activity coefficient was 3.21 ± 0.22.

Question: What about the activity coefficient (338.15 K) of the same compound?
Answer: The activity coefficient was 2.85 ± 0.19.

Question: And the activity coefficient (348.15 K)?
Answer: Its activity coefficient is 2.54 ± 0.17.

Question: What about the activity coefficient (358.15 K) of the same compound?
Answer: The activity coefficient was 2.26 ± 0.15.

Question: What about the activity coefficient (368.15 K) of the same compound?
Answer: The activity coefficient was 2.05 ± 0.14.

Question: With `CCOCC` [diethyl ether] + CCCC[n+]1ccc(C)cc1.O=S(=O)([N-]S(=O)(=O)C(F)(F)F)C(F)(F)F as the compound, how does the activity coefficient (298.15 K) read?
Answer: The activity coefficient was 2.07 ± 0.14.

Question: What about the activity coefficient (308.15 K) of the same compound?
Answer: Its activity coefficient is 2.08 ± 0.14.

Question: What about the activity coefficient (318.15 K) of the same compound?
Answer: Its activity coefficient is 2.08 ± 0.14.

Question: And the activity coefficient (328.15 K)?
Answer: Its activity coefficient is 2.08 ± 0.14.

Question: And the activity coefficient (338.15 K)?
Answer: The activity coefficient was 2.08 ± 0.14.

Question: What about the activity coefficient (348.15 K) of the same compound?
Answer: Its activity coefficient is 2.09 ± 0.14.

Question: What about the activity coefficient (358.15 K) of the same compound?
Answer: Its activity coefficient is 2.09 ± 0.14.

Question: And the activity coefficient (368.15 K)?
Answer: The activity coefficient was 2.09 ± 0.14.

Question: For `CCCCC` [pentane] + CCCC[n+]1ccc(C)cc1.O=S(=O)([N-]S(=O)(=O)C(F)(F)F)C(F)(F)F, which activity coefficient (298.15 K) is on record?
Answer: Its activity coefficient is 12.9 ± 0.9.

Question: What about the activity coefficient (308.15 K) of the same compound?
Answer: Its activity coefficient is 12 ± 0.8.

Question: What about the activity coefficient (318.15 K) of the same compound?
Answer: The activity coefficient was 11.2 ± 0.8.

Question: And the activity coefficient (328.15 K)?
Answer: The activity coefficient was 10.5 ± 0.7.

Question: And the activity coefficient (338.15 K)?
Answer: Its activity coefficient is 9.89 ± 0.67.

Question: What about the activity coefficient (348.15 K) of the same compound?
Answer: Its activity coefficient is 9.37 ± 0.64.

Question: What about the activity coefficient (358.15 K) of the same compound?
Answer: The activity coefficient was 8.88 ± 0.61.

Question: And the activity coefficient (368.15 K)?
Answer: Its activity coefficient is 8.47 ± 0.58.

Question: Which results are given for `C1CCCCCC1` [cycloheptane] + CCCC[n+]1ccc(C)cc1.O=S(=O)([N-]S(=O)(=O)C(F)(F)F)C(F)(F)F?
Answer: activity coefficient (298.15 K): 10.9 ± 0.7; activity coefficient (308.15 K): 10.1 ± 0.7; activity coefficient (318.15 K): 9.45 ± 0.64; activity coefficient (328.15 K): 8.9 ± 0.61; activity coefficient (338.15 K): 8.39 ± 0.57; activity coefficient (348.15 K): 7.9 ± 0.54; activity coefficient (358.15 K): 7.46 ± 0.51; activity coefficient (368.15 K): 7.14 ± 0.49
